Values after ≈ are worked out from the molar mass of the structure shown. Where two headings read alike, the source gives them in different places.

The conditions of data set [1]: from a suspension.
A short description of data set [2]: Stability of molecule A in human duodenal liquid. The class given is in vitro ADME. As to conditions: FIG. 5. On the procedure:
For each stability test, the necessary volume of a sample of human duodenal liquid frozen immediately after withdrawal is defrosted. Centrifuging at 1000 g for 15 min removes the substances resembling mucus. The pH of the supernatant is adjusted to 6.40 by addition of MES buffer (1250 mM in PBS-CMF), a value similar to the mean value of the pH of the fresh duodenal liquid.
Molecule A is dissolved in DMSO and either diluted directly in HESS/HEPES buffer (control) or prepared in the formulations before dilution in HBSS/HEPES in order to obtain a microemulsion. The final concentration in both cases is 10^−4M.
The formulations, preheated to 37° C., are added to the duodenal liquid, maintained at 37° C., in a 1/1 (v/v) ratio and are immediately mixed, in order for the final concentration of molecule A to be 5×10^−5M.
At T=0 (immediately after mixing) and at T=5, 10, 15, 30, 60, 90 and 120 minutes, […] samples of each preparation are withdrawn and mixed with the same volume of acetone at 4° C. to halt the enzymatic reaction. The samples were subsequently centrifuged (1000 g for 5 min) and the supernatant is tested by a validated LC/MS/MS method.

The procedure of data set [3]: 10 mg of molecule A are added per 1 ml of aqueous solution.
The suspensions are stirred at 25° C. for 24 hours and are then centrifuged. The amount of molecule A in the supernatant is determined by HPLC and the pH of the supernatant is checked.
The apparent solubility of molecule A in the various oils, surfactants, cosurfactants, DMSO and glycofurol was also determined. Small amounts of molecule A are added to 1 g of each vehicle. Dissolution is carried out by ultrasound treatment at 25° C. Dissolution is confirmed visually and by optical microscopy. The solubility is estimated to within about 1 mg.

Data set [4] concerns Caco-2/TC7 clone cells.
Method: (§1) The Caco-2 strains used in the tests are Caco-2/TC7 clone cells.
(§2) In order to evaluate the scale of permeability of molecule A dissolved in DMSO as a function of the concentration, two solutions are prepared. The first, to which molecule A labelled with ^14C will be added, is 4.3×10^−2M; the second, to which ^14C-mannitol will be added, is 5×10^−2M.
(§3) These DMSO solutions are subsequently diluted in a 25 mM HBSS/HEPES buffer (pH 7.4) to which 0.4 μCi/ml of ^14C-mannitol or 0.4 μCi/ml of molecule A labelled with ^14C has been added (corresponding to 7 μM), so as to obtain final concentrations of molecule A of 7, 10, 50 or 100 mM.
(§4) The final concentration of DMSO in each donor solution is adjusted to 0.5%.
(§5) Donor solutions comprising 0.5% DMSO but comprising no compound are used as controls.
(§6) To analyse the role of P-glycoprotein in the mechanism of the transport of molecule A, donor solutions comprising 10 mM of molecule A and 100 mM of verapamil, nicardipine or progesterone are prepared and the permeability of molecule A is evaluated and compared with that obtained without the P-glycoprotein modulator.
(§7) To study the effects of glycofurol and of macrogol 300 on the permeability of molecule A: • Molecule A is dissolved in glycofurol in order to obtain 4.3×10^−3M or 5×10^−3M solutions. These are subsequently diluted in the HBSS/HEPES buffer to which 0.4 μCi/ml of ^14C-mannitol or 0.4 μCi/ml of molecule A labelled with ^14C has been added (see above), in order to obtain donor solutions for which the final concentration of molecule A is 50 μM and the final content of glycofurol is 1%. • Molecule A is dissolved in macrogol 300 in order to obtain 0.3×10^−3M or 10^−3M solutions.
(§8) Before any formulation, molecule A is dissolved in DMSO or glycofurol in order to obtain, in each solvent, solutions with concentrations of 4.3×10^−3M or 5×10^−3M. 40 μCi/ml of molecule A labelled with ^14C are added to the 4.3×10^−3M solutions, so that the theoretical concentration of molecule A is 5×10^−3M. 40 μCi/ml of ^14C-mannitol are added to the 5×10^−3M solutions.
(§9) Each of the solutions thus obtained is subsequently diluted in the mixtures under consideration of lipid excipients and of surfactants and, if appropriate, of cosurfactants, giving formulations comprising the solvent (DMSO or glycofurol) at 10% and molecule A at 5×10^−4M.
(§10) These formulations are diluted in 25 mM HBSS/HEPES buffer to give the donor solutions, the final concentration of molecule A of which is 5×10^−5M, which comprise 0.4 μCi/ml of molecule A labelled with 14C or else 0.4 μCi/ml of 14C-mannitol, and the proportion of lipid excipient of which is less than 1%. […]
Data set [5] can be described thus: in vitro. Conditions: human, Caco-2, pH 7.4.
Method: as §1, §2, §3, §4, §5, §6, §7, §8, §9, §10
Data set [6] relates to Caco-2/TC7 clone cells. Briefly: Transport (apparent permeability AB/BA) through Caco-2 cell monolayers. Conditions: solvents used to prepare the formulations (FIG. 3).
Method: as §1, §2, §3, §4, §5, §6, §7, §8, §9, §10

For the compound `CCOC(=O)[C@H](CNC(=O)c1ccc(CCC(=O)NC2=NCCCN2)cc1)NS(=O)(=O)c1cccc2ccccc12` [molecule A, ethyl ester of (2S)-2-(naphthyl-1-sulphonylamino)-3-(4-(2-(1,4,5,6-tetrahydropyrimidin-2-ylcarbamoyl)ethyl)-benzoylamino)propionic acid], in data set [1], the absolute bioavailability result was “less than 1%”. Besides, the “absorption of the active principle orally” value in data set [1] is “less than 1%”. The “stability in human duodenal liquid (in words)” value in data set [2] is on record as “unstable”. In addition, the solubility in data set [3] (aqueous medium at physiological pH of the intestines) was determined as 400 µg/mL (≈ 0.69 mM); in data set [3] (in glycofurol) it was 6000 µg/mL (≈ 10.4 mM); in data set [3] (in macrogol 300), 2000 µg/mL (≈ 3.45 mM).
As to `O=C(CCCOc1ccc(C[C@H](NC(=O)OCc2ccccc2)C(=O)O)cc1)NC1=NCCCN1` [molecule B, (2S)-2-benzyloxycarbonylamino-3-(4-(3-(1,4,5,6-tetrahydropyrimidin-2-ylcarbamoyl)propyloxy)phenyl)-propionic acid], the “efflux by P-glycoprotein (in words)” value in data set [4] (Caco-2) was “undergoes efflux by P-glycoprotein”. Further, the “increase in the transport in the AB direction by a factor, with respect to 0.5% DMSO” value in data set [4] (human, Caco-2, 120 min, pH 7.4) came to 5.9. Moreover, the Papp B→A at 120 min in data set [5] came out at 2.1 ×10⁻⁶ cm/s.
Turning to glycofurol, in data set [6], the “effect of the solvent on the Papp values of molecule A” value was “no effect”.

The solubility is how much of the substance goes into solution per volume. In general, Papp B→A refers to the apparent permeability from the basolateral to the apical side of a cell layer.

(Values after patent US20080193519A1, “Galenic Applications of Self-Emulsifying Mixtures of Lipidic Excipients” (Aventis Pharma S.A., priority 2004, published 2008).)
